The values below come from patent US11510980B2, “Brartemicin analogues” (VICTORIA LINK LTD, priority 2017, dated 2022).

Structures are written as SMILES.

The target in one assay is T1, hMincle-Ig (Homo sapiens, UniProt Q9ULY5).
T1 construct: using soluble Mincle-Ig fusion-proteins; made in house
T1 sequence (Q9ULY5 41-219 limits assumed): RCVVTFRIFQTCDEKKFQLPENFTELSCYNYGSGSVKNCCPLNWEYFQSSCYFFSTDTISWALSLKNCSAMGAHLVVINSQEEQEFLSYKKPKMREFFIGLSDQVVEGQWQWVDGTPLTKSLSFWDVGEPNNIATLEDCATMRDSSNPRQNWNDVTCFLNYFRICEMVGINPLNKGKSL
The assay can be described thus: In vitro Mincle binding assay (ELISA) with hMincle-Ig fusion protein. The conditions noted are these: plate-coated ligand 0.1 nmol/well. The method, then:
(§1) Preparation of ligand-coated plates: Brartemicin analogues 9a-9i, TDM (Carbosynth, Sigma Aldrich), and TDB^14 were dissolved in CHCl3:MeOH (2:1, 1 mM), diluted in isopropanol ([…]) and added to 96-well plates (20 μL/well). The solvents were evaporated and the coated plates were used immediately.
(§2) In vitro Mincle binding assay: The preparation of mMincle- and hMincle-Ig fusion proteins have been previously described. Plate-coated glycolipids 9a-i, TDB, and TDM were incubated with hMincle-Ig, mMincle-Ig, or hIgG1-Fc (Ig) [3 μg/mL in binding buffer (20 mM Tris-HCl, 150 mM NaCl, 1 mM CaCl2), 2 mM MgCl2, pH 7.0)]. Detection of bound protein was achieved via incubation with anti-hIgG-HRP followed by the addition of a colorimetric substrate and measurement of OD at 450 nm. Background was accounted for by subtracting the hIgG1-Fc OD450 values from fusion protein OD450 values
(§3) The synthesised brartemicin analogues prepared in Example 1 were first tested for their ability to bind to both human and murine Mincle in an enzyme-linked immunosorbent assay (ELISA) using soluble Mincle-Ig fusion-proteins (FIG. 1a).

For another assay, the target named is T2, mMincle-Ig (Mus musculus, UniProt Q9R0Q8).
T2 construct: using soluble Mincle-Ig fusion-proteins; made in house
T2 sequence (Q9R0Q8 46-214 limits assumed): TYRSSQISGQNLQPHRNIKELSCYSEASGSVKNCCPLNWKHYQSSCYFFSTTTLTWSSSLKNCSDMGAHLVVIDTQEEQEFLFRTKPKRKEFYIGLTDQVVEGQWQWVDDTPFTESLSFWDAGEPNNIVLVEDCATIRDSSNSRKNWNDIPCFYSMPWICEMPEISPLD
As to the kind of experiment: In vitro Mincle binding assay (ELISA) with mMincle-Ig fusion protein. Set-up: species or system murine. The conditions noted are these: plate-coated ligand 0.1 nmol/well. The method, then:
as §1, §2, §3

A further assay deals with T3, mMincle+FcRγ (Mus musculus, UniProt Q9R0Q8).
T3 construct: expressed in transfected cells; host or cells: 2B4-NFAT-GFP reporter cells
T3 sequence (Q9R0Q8 1-214): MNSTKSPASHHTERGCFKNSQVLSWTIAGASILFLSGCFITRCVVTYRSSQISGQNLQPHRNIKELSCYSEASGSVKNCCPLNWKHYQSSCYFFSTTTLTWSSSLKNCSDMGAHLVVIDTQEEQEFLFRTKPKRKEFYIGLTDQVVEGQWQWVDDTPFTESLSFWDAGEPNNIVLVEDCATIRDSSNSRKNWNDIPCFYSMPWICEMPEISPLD
T3 sequence (P20491 19-86 partner): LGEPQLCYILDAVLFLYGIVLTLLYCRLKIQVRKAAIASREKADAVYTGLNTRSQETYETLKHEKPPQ
The assay can be described thus: 2B4-NFAT-GFP reporter cells expressing mMincle+FcRγ. Conditions: ligand-coated plates 0.01, 0.1 or 1 nmol/well, 18 hours. It is filed as cell-based, murine. The method, then: as §1
(§4) 2B4-NFAT-GFP reporter cells: 2B4-NFAT-GFP reporter cells expressing mMincle+FcRγ, hMincle+FcRγ, or FcRγ only have been previously described. […] The reporter cells were harvested, stained with propidium iodide, and analysed for NFAT-GFP expression using flow cytometry (FACS Calibur).
(§5) To determine whether the Mincle binding observed in Example 1 correlated with cellular activation, nuclear factor of activated T cells (NFAT)-green fluorescent protein (GFP) reporter cells expressing mMincle or hMincle coupled to FcRγ were stimulated using plates coated with TDM, TDB, brartemicin (9i), or analogues 9a-9h.
(§6) Activation of the reporter cells was measured through the production of GFP, which was monitored by flow cytometry (FIGS. 1b and 3c).
(§7) With the compounds 43a-h in hand, the ability of these analogues to bind and signal through Mincle was assessed (FIG. 5). Accordingly, NFAT-GFP reporter cells expressing mMincle+FcRγ, hMincle+FcRγ, or FcRγ-only were stimulated with the 2G-brartemicin analogues 43a-h, TDB, iPrOH, or the p-OC18H37 substituted analogue, 9f. Reporter cell activation was measured by the production of NFAT-GFP, which was analysed by flow cytometry.

A further assay addresses T4, hMincle+FcRγ (Homo sapiens, UniProt Q9ULY5).
T4 construct: expressed in transfected cells; host or cells: 2B4-NFAT-GFP reporter cells
T4 sequence (Q9ULY5 1-219): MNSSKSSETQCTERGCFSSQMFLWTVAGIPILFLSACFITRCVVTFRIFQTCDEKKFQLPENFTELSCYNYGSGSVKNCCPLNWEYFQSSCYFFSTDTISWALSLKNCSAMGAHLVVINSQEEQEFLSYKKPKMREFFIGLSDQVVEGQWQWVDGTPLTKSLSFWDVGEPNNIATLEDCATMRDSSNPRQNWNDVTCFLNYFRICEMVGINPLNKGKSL
As to the kind of experiment: 2B4-NFAT-GFP reporter cells expressing hMincle+FcRγ. It is filed as cell-based. The conditions noted are these: ligand-coated plates 0.01, 0.1 or 1 nmol/well, 18 hours. The method, then: as §1, §4, §5, §6, §7

The subject of another assay is wild-type GM-CSF BMDMs. As to the kind of experiment: Cytokine/chemokine production by wild-type GM-CSF BMDMs on ligand-coated plates. Format: cell-based, C57BL/6 mice. Conditions: for IL-1β production / IL-6 production / MIP-2 production / TNF production: wild-type BMDMs, coated plates 0.1 or 1 nmol/well, 24 hours, ELISA. How it is done: as §1
Murine bone-marrow derived macrophages: For the preparation of murine bone-marrow derived macrophages, bone marrow cells were collected from the tibias and femurs of C57BL/6 mice and cultured (250,000 cells/mL) in complete RPMI media [RPMI-1640 (Gibco) with 10% heat inactivated fetal bovine serum (Gibco), 100 unit/mL penicillin-streptomycin (Gibco) and 2 mM Glutamax (Gibco)] supplemented with 50 ng/mL GM-CSF (clone X63/GM-CSF murine cells). Cells were incubated at 37° C. (5% CO2) for 8 days (cells fed by replacing half the media on days 3 and 6). On day 8, all media was removed and the cells were washed with Dulbecco's Phosphate-Buffered Saline (DPBS, Gibco) to remove any loosely-adherent cells. The BMDMs were harvested with StemPro Acutase (1 mL/well, 15 minutes at room temperature, Gibco) and seeded onto a pre-coated 96-well plate. The supernatant was collected and analysed for cytokine/chemokine production after 24 hours.
Cytokine analysis: IL-1β, IFN-γ, IL-6, TNF-α (BD Biosciences), IL-17, and MIP-2 (R&D) levels were determined via sandwich ELISA according to the manufacturer's instructions.
First, the ability of the compounds to activate GM-CSF BMDMs was determined by monitoring the secretion of the inflammatory cytokines TNF, IL-6, and IL-1β and the chemokine, MIP-2, in a ligand-coated plate assay (FIG. 2).
To gain insight into the capacity of the 2G-series of brartemicin analogues to induce an inflammatory immune response, the analogues were then screened for their ability to activate WT and Mincle^−/− BMDMs, with cellular activation being determined by the measurement of IL-1B using ELISA (FIG. 6).

As to `CCCCCCCOc1ccc(C(=O)OCC2O[C@H](O[C@H]3OC(COC(=O)c4ccc(OCCCCCCC)cc4O)[C@@H](O)C(O)C3O)C(O)C(O)[C@@H]2O)c(O)c1` (stereo partly drawn) [9b, 6,6′-Di-O-(4-heptyloxy-2-hydroxybenzoyl)-α,α′-D-trehalose], the “binding to hMincle-Ig (ELISA, OD at 450 nm)” value (“binding to hMincle-Ig” for short) on hMincle-Ig was “good binding”. Moreover, on mMincle-Ig, the “binding to mMincle-Ig (ELISA, OD at 450 nm)” value (shortened to “binding to mMincle-Ig”) is reported as “good binding”. In addition, at mMincle+FcRγ, the “activation of mMincle NFAT-GFP reporter cells (GFP by flow cytometry)” value was “activated mMincle and hMincle NFATGFP reporter cells but to a lesser extent than the C18 analogues”. For the same molecule, on hMincle+FcRγ, the “activation of hMincle NFAT-GFP reporter cells (GFP by flow cytometry)” value is “activated mMincle and hMincle NFATGFP reporter cells but to a lesser extent than the C18 analogues”. In the assay with wild-type GM-CSF BMDMs, the IL-1β production result is reported as “modest production”, the IL-6 production entry is reported as “modest production”, the MIP-2 production entry is listed as “modest production” and the TNF production result is on record as “modest production”.
In the case of `CCCCOc1ccc(C(=O)OCC2O[C@H](O[C@H]3OC(COC(=O)c4ccc(OCCCC)cc4O)[C@@H](O)C(O)C3O)C(O)C(O)[C@@H]2O)c(O)c1` (stereo partly drawn) [9c, 6,6′-Di-O-(2-hydroxy-4-butoxybenzoyl)-α,α′-D-trehalose], the “binding to hMincle-Ig” value on hMincle-Ig is given as “did not bind hMincle- or mMincle-Ig to any great extent”. Also, at mMincle-Ig, the “binding to mMincle-Ig” value is “did not bind hMincle- or mMincle-Ig to any great extent”. Also, on mMincle+FcRγ, the “activation of mMincle NFAT-GFP reporter cells (GFP by flow cytometry)” value is “able to activate mMincle and hMincle only at high ligand concentrations”. Besides, the “activation of hMincle NFAT-GFP reporter cells (GFP by flow cytometry)” value at hMincle+FcRγ was “able to activate mMincle and hMincle only at high ligand concentrations”. In addition, the MIP-2 production result with wild-type GM-CSF BMDMs is given as “induced MIP-2”.
`CCCCCCCOc1cc(C)c(C(=O)OCC2O[C@H](O[C@H]3OC(COC(=O)c4c(C)cc(OCCCCCCC)cc4O)[C@@H](O)C(O)C3O)C(O)C(O)[C@@H]2O)c(O)c1` (stereo partly drawn) [9h, 6,6′-Di-O-(4-heptyloxy-2-hydroxy-6-methylbenzoyl)-α,α′-D-trehalose]: the “binding to hMincle-Ig” value on hMincle-Ig was “good binding”. Moreover, the “binding to mMincle-Ig” value on mMincle-Ig is “good binding”. On mMincle+FcRγ, the “activation of mMincle NFAT-GFP reporter cells (GFP by flow cytometry)” value was “strongly activated”. Further, the “activation of hMincle NFAT-GFP reporter cells (GFP by flow cytometry)” value on hMincle+FcRγ is reported as “strongly activated”. In addition, in the assay on wild-type GM-CSF BMDMs, the IL-1β production result was “significant production”, the IL-6 production result is “significant production”, the MIP-2 production entry is “significant production” and the TNF production entry is “significant production”.
Take `Cc1cc(O)cc(O)c1C(=O)OC[C@H]1O[C@H](O[C@H]2O[C@H](COC(=O)c3c(C)cc(O)cc3O)[C@@H](O)[C@H](O)[C@H]2O)[C@H](O)[C@@H](O)[C@@H]1O` [9i, Brartemicin]: at hMincle-Ig, the “binding to hMincle-Ig” value is on record as “did not bind hMincle- or mMincle-Ig to any great extent”. The “binding to mMincle-Ig” value on mMincle-Ig was “did not bind hMincle- or mMincle-Ig to any great extent”. Further, on mMincle+FcRγ, the “activation of mMincle NFAT-GFP reporter cells (GFP by flow cytometry)” value was “did not significantly activate mMincle”. For the same molecule, the “activation of mMincle NFAT-GFP reporter cells (GFP by flow cytometry)” value at mMincle+FcRγ (listed as Brartemicin) is listed as “not to activate”. Further, the “activation of hMincle NFAT-GFP reporter cells (GFP by flow cytometry)” value at hMincle+FcRγ is “not to activate”. Besides, in the assay on wild-type GM-CSF BMDMs, the “activation of BMDMs” value is “not to activate”, the IL-1β production entry is given as “did not induce the production of any of the cytokines measured”, the IL-6 production result is recorded as “did not induce the production of any of the cytokines measured” and the MIP-2 production result is on record as “did not induce the production of any of the cytokines measured”. The TNF production result with wild-type GM-CSF BMDMs was “did not induce the production of any of the cytokines measured”.
